pIC50: −log10 of the molar value.
Test system: LG0567-F671-PDC KRAS tumor spheroid viability
Assay: Anticancer human tumor LG0567-F671-PDC patient-derived lung adenocarcinoma cell line growth inhibition [KRAS2]
Settings: spheroids with HUVEC and MSC; for pIC50: curve of first compound; for viability, T/C: stronger effect = lower value
Summary of the method: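 KRAS-mutant tumor cells were grown as spheroids with HUVEC endothelial cells and human MSCs as stroma. Targeted agents were tested alone and with KRAS pathway inhibitors. Doses started at or near clinical Cmax, or 10 microM, descending half-log.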

[1] = second compound 0.1 µM, first compound 0.0316 µM
[2] = second compound 0.1 µM, first compound 0.1 µM
[3] = second compound 0.1 µM, first compound 0.316 µM
[4] = second compound 0.1 µM, first compound 1 µM
[5] = second compound 0.1 µM, first compound 3.16 µM
[6] = second compound 0.1 µM, first compound 10 µM
[7] = second compound 0.316 µM, first compound 0.0316 µM
[8] = second compound 0.316 µM, first compound 0.1 µM
[9] = second compound 0.316 µM, first compound 0.316 µM
[10] = second compound 0.316 µM, first compound 1 µM
[11] = second compound 0.316 µM, first compound 3.16 µM
[12] = second compound 0.316 µM, first compound 10 µM
[13] = second compound 1 µM, first compound 0.0316 µM
[14] = second compound 1 µM, first compound 0.1 µM
[15] = second compound 1 µM, first compound 0.316 µM
[16] = second compound 1 µM, first compound 1 µM
[17] = second compound 1 µM, first compound 3.16 µM
[18] = second compound 1 µM, first compound 10 µM
[19] = second compound 3.16 µM, first compound 0.0316 µM
[20] = second compound 3.16 µM, first compound 0.1 µM
[21] = second compound 3.16 µM, first compound 0.316 µM
[22] = second compound 3.16 µM, first compound 1 µM
[23] = second compound 3.16 µM, first compound 3.16 µM
[24] = second compound 3.16 µM, first compound 10 µM
[25] = second compound 10 µM, first compound 0.0316 µM
[26] = second compound 10 µM, first compound 0.1 µM
[27] = second compound 10 µM, first compound 0.316 µM
[28] = second compound 10 µM, first compound 1 µM
[29] = second compound 10 µM, first compound 3.16 µM
[30] = second compound 10 µM, first compound 10 µM
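Also: drug exposure lasted seven days after spheroids formed for three days.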
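For viability, T/C in this document: 100% = DMSO vehicle control viability.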

`COC(=O)c1ccc2c(C(=Nc3ccc(N(C)C(=O)CN4CCN(C)CC4)cc3)c3ccccc3)c(O)[nH]c2c1` + CNCc1ccccc1-c1csc(C(C)Nc2nc(C)nc3cc(OC)c(OC)cc23)c1 was tested, and the pIC50 (second compound 0.1 µM) was < 5.00, the pIC50 (second compound 0.316 µM) was > 7.50 and the pIC50 (second compound 1 µM) was 6.37. The pIC50 (second compound 3.16 µM) was > 7.50, the pIC50 (second compound 10 µM) was > 7.50 and the viability, T/C [1] was 66.3%. It also gave a viability, T/C [2] of 57.4%, a viability, T/C [3] of 57.2% and a viability, T/C [4] of 59.2%. The viability, T/C [5] was 65.4%, the viability, T/C [6] was 56.4% and the viability, T/C [7] was 50.6%. The viability, T/C [8] was 45.5%, the viability, T/C [9] was 39.7% and the viability, T/C [10] was 53.6%. It also gave a viability, T/C [11] of 29.4%, a viability, T/C [12] of 41.7% and a viability, T/C [13] of 52.5%. It also gave a viability, T/C [14] of 48.5%, a viability, T/C [15] of 52.8% and a viability, T/C [16] of 46.9%. For the same molecule, the viability, T/C [17] was 2.38%, the viability, T/C [18] was 3.49% and the viability, T/C [19] was 1.05%. For the same molecule, the viability, T/C [20] was 2.43%, the viability, T/C [21] was 0.68% and the viability, T/C [22] was 0.71%. It also gave a viability, T/C [23] of 0.64%, a viability, T/C [24] of 0.52% and a viability, T/C [25] of 1.55%. It also gave a viability, T/C [26] of 1.48%, a viability, T/C [27] of 2.71% and a viability, T/C [28] of 2.27%. It also gave a viability, T/C [29] of 0.69% and a viability, T/C [30] of 0.4%.

With `COc1cc(Nc2ncc3c(n2)-c2ccc(Cl)cc2C(c2c(F)cccc2OC)=NC3)ccc1C(=O)O` + CNCc1ccccc1-c1csc(C(C)Nc2nc(C)nc3cc(OC)c(OC)cc23)c1 the pIC50 (second compound 0.1 µM) was 5.52, the pIC50 (second compound 0.316 µM) was 6.46 and the pIC50 (second compound 1 µM) was 6.58. The pIC50 (second compound 3.16 µM) was > 7.50, the pIC50 (second compound 10 µM) was > 7.50 and the viability, T/C [1] was 72%. The viability, T/C [2] was 62%, the viability, T/C [3] was 58.1% and the viability, T/C [4] was 60.6%. The viability, T/C [5] was 51.4%, the viability, T/C [6] was 37.8% and the viability, T/C [7] was 56.3%. It also gave a viability, T/C [8] of 54.3%, a viability, T/C [9] of 48.2% and a viability, T/C [10] of 45.6%. The viability, T/C [11] was 42.4%, the viability, T/C [12] was 32% and the viability, T/C [13] was 52.4%. The viability, T/C [14] was 53.4%, the viability, T/C [15] was 47% and the viability, T/C [16] was 48.2%. It also gave a viability, T/C [17] of 37.8%, a viability, T/C [18] of 29% and a viability, T/C [19] of 12.8%. The viability, T/C [20] was 16.8%, the viability, T/C [21] was 14% and the viability, T/C [22] was 3.3%. The viability, T/C [23] was 0.97%, the viability, T/C [24] was 1.05% and the viability, T/C [25] was 0.9%. For the same molecule, the viability, T/C [26] was 0.24%, the viability, T/C [27] was 0.13% and the viability, T/C [28] was 0.43%. For the same molecule, the viability, T/C [29] was 0.12% and the viability, T/C [30] was 1.01%.

`O=C(c1cc(Cc2n[nH]c(=O)c3ccccc23)ccc1F)N1CCN(C(=O)C2CC2)CC1` + CNCc1ccccc1-c1csc(C(C)Nc2nc(C)nc3cc(OC)c(OC)cc23)c1 was tested, and the pIC50 (second compound 0.1 µM) was < 5.00, the pIC50 (second compound 0.316 µM) was < 5.00 and the pIC50 (second compound 1 µM) was < 5.00. For the same molecule, the pIC50 (second compound 3.16 µM) was 5.44, the pIC50 (second compound 10 µM) was > 7.50 and the viability, T/C [1] was 88.1%. It also gave a viability, T/C [2] of 95.4%, a viability, T/C [3] of 80.6% and a viability, T/C [4] of 79.5%. For the same molecule, the viability, T/C [5] was 74.1%, the viability, T/C [6] was 81.6% and the viability, T/C [7] was 69.6%. For the same molecule, the viability, T/C [8] was 58.8%, the viability, T/C [9] was 63.9% and the viability, T/C [10] was 52.8%. For the same molecule, the viability, T/C [11] was 61.5%, the viability, T/C [12] was 60.5% and the viability, T/C [13] was 78.1%. It also gave a viability, T/C [14] of 72.2%, a viability, T/C [15] of 68.3% and a viability, T/C [16] of 71.5%. For the same molecule, the viability, T/C [17] was 67%, the viability, T/C [18] was 64.4% and the viability, T/C [19] was 46.5%. It also gave a viability, T/C [20] of 80%, a viability, T/C [21] of 84.2% and a viability, T/C [22] of 0.72%. The viability, T/C [23] was 69.7%, the viability, T/C [24] was 0.31% and the viability, T/C [25] was 0.22%. It also gave a viability, T/C [26] of 0.82%, a viability, T/C [27] of 0.19% and a viability, T/C [28] of 0.61%. For the same molecule, the viability, T/C [29] was 0.17% and the viability, T/C [30] was 0.2%.
